This assay has as its target T1, human β3 (Homo sapiens, UniProt P13945).
T1 construct: the full length human β3 gene was obtained from a human genomic library; expressed in transfected cells; host or cells: CHO (Chinese hamster ovary) cells, pcDNA3 vector
Nature of the assay: Human β3-agonist activities (cAMP in CHO cells transfected with human β3 gene). The note with it: CHO cells expressing human β3; for EC50: cAMP quantitated with EIA kit after 30 minutes, read-out: human β3-agonist activity (ED50); for Emax: read-out: intrinsic activity as compared with Isoproterenol. The class given is cell-based. The procedure: Human β3-Agonist Activities
Human β3-agonist activities were determined using CHO (Chinese hamster ovary) cells transfected with pcDNA3 (mfd. by Invitrogen) to which human β3 gene had been inserted. Human β3 fragment was first obtained from human adipose tissue cDNA (mfd. by Clonetech) by PCR using the primer of β3 (Krief, et al., J. Clin. Invest., 91, p. 344 (1993)). The human β3 fragment obtained was then used as a probe and then the full length human β3 gene was obtained from a human genomic library (mfd. by Clonetech).
The above cells were cultured in a Ham F-12 medium supplemented with 10% fetal bovine serum (mfd. by Dainippon Pharmaceutical), 400 μg/mL geneticin (Gibco BRL), 100 U/mL penicillin and 100 μg/mL streptomycin. After placing these cells (5×10^5) into a 6-well plate and culturing them for 24 hours, they were allowed to stand on a serum-free Ham F-12 medium for 2 hours. The compound was first dissolved in DMSO, repeatedly diluted by ten times with Ham F-12 supplemented with 1 mM isobutylmethylxanthine and 1 mM ascorbic acid to a final concentration of from 10^−5 to 10^−12 M, and then added to the cells.
After the cells were cultured for 30 minutes, the medium was removed followed by addition of 0.5 mL of an aqueous 1 N sodium hydroxide solution. The medium was allowed to stand for 20 minutes and then 0.5 mL of an aqueous 1 N acetic acid solution was added to the medium. The medium was stirred and centrifuged followed by quantitating cAMP with cAMP EIA kit (mfd. by Cayman). Isoproterenol was purchased from RBI (Research Biochemicals International).

[1] abbreviates: cAMP, relative to Isoproterenol.

Counter-ions that a name gives are not always drawn.

T1 sequence (P13945 whole entry): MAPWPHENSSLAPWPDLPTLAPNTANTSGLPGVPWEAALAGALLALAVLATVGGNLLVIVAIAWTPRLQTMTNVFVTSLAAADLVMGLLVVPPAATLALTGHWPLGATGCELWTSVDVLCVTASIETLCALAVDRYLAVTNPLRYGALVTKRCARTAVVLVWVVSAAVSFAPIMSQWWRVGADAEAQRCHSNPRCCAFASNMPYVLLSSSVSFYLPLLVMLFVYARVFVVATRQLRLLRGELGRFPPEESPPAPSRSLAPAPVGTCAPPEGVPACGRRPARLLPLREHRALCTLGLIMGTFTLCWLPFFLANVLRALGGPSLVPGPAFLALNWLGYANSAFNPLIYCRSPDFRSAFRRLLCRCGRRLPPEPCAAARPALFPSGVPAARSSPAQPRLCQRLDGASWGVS

`CS(=O)(=O)Nc1cccc([C@@H](O)CNCCOc2ccc3c(c2)[nH]c2cc(O)ccc23)c1` [Example 2, (R)-N-[3-[2-[2-(7-hydroxy-9H-carbazol-2-yloxy)ethylamino]-1-hydroxyethyl]phenyl]methanesulfonamide Hydrochloride]: the EC50 was 0.8 nM. The Emax under setting [1] was 82%.
For `CS(=O)(=O)Nc1cccc([C@@H](O)CNCCOc2ccc3c(c2)[nH]c2cc(N)ccc23)c1` [Example 9, (R)-N-[3-[2-[2-(7-amino-9H-carbazol-2-yloxy)ethylamino]-1-hydroxyethyl]phenyl]methanesulfonamide Dihydrochloride] the same measures were 1 nM and 102%.
For `CCN(c1ccc2c(c1)[nH]c1cc(OCCNC[C@H](O)c3cccc(NS(C)(=O)=O)c3)ccc12)S(C)(=O)=O.Cl` [Example 33, (R)-N-[3-[2-[2-[7-(N′-ethyl-N′-methylsulfonylamino)-9H-carbazol-2-yloxy]ethylamino]-1-hydroxyethyl]phenyl]methanesulfonamide Hydrochloride], the EC50 is 0.22 nM. For the same compound, the “intrinsic activity as compared with Isoproterenol” value under setting [1] is reported as 94%.
On to `CS(=O)(=O)Nc1cccc([C@@H](O)CNCCOc2ccc3c(c2)[nH]c2cc(NS(C)(=O)=O)ccc23)c1` [Example 35, (R)-N-[3-[1-hydroxy-2-[2-(7-N′-methylsulfonylamino-9H-carbazol-2-yloxy)ethylamino]ethyl]phenyl]methanesulfonamide Hydrochloride], for which the EC50 was found to be 0.16 nM. Moreover, the Emax under setting [1] came out at 96%.
The corresponding values for `COCCOc1ccc2c(c1)[nH]c1cc(OCCNC[C@H](O)c3cccc(NS(C)(=O)=O)c3)ccc12` [Example 43, (R)-N-[3-[1-hydroxy-2-[2-[7-(2-methoxyethoxy)-9H-carbazol-2-yloxy]ethylamino]ethyl]phenyl]methanesulfonamide Hydrochloride] are 0.69 nM and 114%.
The corresponding values for `CS(=O)(=O)Nc1cc([C@@H](O)CNCCOc2ccc3c(c2)[nH]c2cc(O)ccc23)ccc1Cl` [Example 3, (R)-N-[2-chloro-5-[2-[2-(7-hydroxy-9H-carbazol-2-yloxy)ethylamino]-1-hydroxyethyl]phenyl]methanesulfonamide Hydrochloride] are 1.5 nM and 75%.
For `CC(=O)Nc1ccc2c(c1)[nH]c1cc(OCCNC[C@H](O)c3cccc(NS(C)(=O)=O)c3)ccc12` [Example 8, (R)-N-[3-[2-[2-(7-acetamido-9H-carbazol-2-yloxy)-ethylamino]-1-hydroxyethyl]phenyl]methanesulfonamide Hydrochloride] the same measures were 0.35 nM and 47%.
For the compound `CC(C)(C)C(=O)Oc1ccc2c(c1)[nH]c1cc(OCCNCC(O)c3cccc(NS(C)(=O)=O)c3)ccc12` (stereo not drawn) [Example 10], the EC50 was determined as 2.4 nM. Moreover, under setting [1], the Emax was 112%.
For `CS(=O)(=O)Nc1cccc([C@@H](O)CNCCOc2ccc3c(c2)[nH]c2cc(OCC(=O)O)ccc23)c1` [Example 45, (R)-N-[3-[2-[2-(7-hydroxycarbonylmethoxy-9H-carbazol-2-yloxy)ethylamino]-1-hydroxyethyl]phenyl]methanesulfonamide] the same measures were 2.6 nM and 114%.

Source of the values: patent US20030040538A1, “Novel substituted tricyclic compounds” (priority 1999, published 2003).
